# From ChEMBL document CHEMBL1144126, “A new insecticidal pyranocyclohexenedione from kunzea ericifolia” (1999)
# System: Phaedon cochleariae
# Experiment: Insecticidal activity against mustard beetles at 10 ug after 24 to 48 hrs
# Assay type: functional
smiles,measurement,value
CC(C)C[C@@H]1C2=C(O[C@@H](C3=C(O)C(C)(C)C(=O)C(C)(C)C3=O)[C@H]1C(C)C)C(C)(C)C(=O)C(C)(C)C2=O [ERICIFOLIONE],Activity,97%
